From patent US8809358B2, “Use of IκB-kinase inhibitors in pain therapy” (Sanofi-Aventis Deutschland GmbH, priority 2002, dated 2014)

What was measured:
[1] = test system: Zymosan-induced paw inflammation; assay: Zymosan-induced paw inflammation in the rat: paw withdrawal time during thermal stimulation (Hargreaves test); type: in vivo; conditions: for Change in the paw withdrawal time (%): 30 mg/kg i.p. 15 min before, 2.5 and 5.5 h after Zymosan
Method: (§1) • Zymosan-induced paw inflammation in the rat; • Parameter: paw withdrawal time or paw withdrawal threshold during thermal or mechanical stimulation of the hind paw. 2nd Model: • Kaolin/carrageenan-induced knee joint inflammation in the rat; • Parameter: reaction of spinal neurons during pressure stimulation of the knee. Model 1
Experimental implementation: in short-term anesthesia using isoflurane, 1 mg of Zymosan (as a suspension in 100 μl of PBS (phosphate-buffered salt solution)) was injected subcutaneously into the middle of the plantar side of one of the experimental animal's hind paws. After that, two different behavioral tests were used to quantitatively determine the development of a hyperalgesia.
a) Determining the Paw Withdrawal Time During Thermal Stimulation (Hargreaves Test).
The experimental animal was placed in a transparent plastic chamber having a glass floor. As soon as the experimental animal was no longer moving, following the reconnaissance phase (about 5 min), an infrared light source was positioned directly below the hind paw to be stimulated and switched on. The lamp emitted focused infrared light of increasing intensity, such that the skin temperature of the hind paw increased almost linearly. As soon as the animal withdrew the paw, the lamp switched itself off. The temperature of the paw at the time it is withdrawn has just become unpleasant for the animal; this is referred to as the thermal pain threshold.
About half an hour before, and at various times after, the Zymosan injection, the thermal and mechanical pain thresholds were determined on the right hind paw and on the left hind paw (see Tables 1, 2). The decrease in the ipsilateral pain threshold, expressed in % of the contralateral pain threshold, was then calculated (see Tables 1, 2). The degree of hyperalgesia is directly proportional to the magnitude of this decrease.
In a control group, the Zymosan injection induced pronounced mechanical and thermal hyperalgesia (see control data in Tabs. 1 and 2).

[2] = test system: Zymosan-induced paw inflammation; assay: Zymosan-induced paw inflammation in the mouse: paw withdrawal time during thermal stimulation of the hind paw; type: in vivo; conditions: for Statistical difference as compared with the vehicle: thermal hyperalgesia AUC
Method: • Zymosan-induced paw inflammation in the mouse; • Parameter: paw withdrawal time during thermal stimulation of the hind paw. Experimental implementation: In short-term anesthesia using isoflurane, 25 μl of a suspension containing 50 mg of zymosan/ml were injected into the right hind paw of the experimental animal. The development of a hyperalgesia was then determined quantitatively as follows: Determining the Paw Withdrawal Time During Thermal Stimulation (Hargreave's Test; See Above). The experimental animal was placed in a transparent plastic chamber having a glass floor. As soon as the experimental animal was no longer moving, following the reconnaissance phase (about 5 min), an infrared light source was positioned directly below the hind paw to be stimulated and switched on. The lamp emitted focused infrared light of increasing intensity such that the skin temperature of the hind paw increased almost linearly. As soon as the animal withdrew the paw, the lamp switched itself off. The temperature of the paw at the time it is withdrawn has just become unpleasant for the animal; this is referred to as the thermal pain threshold. Shortly before the zymosan injection, and for from 7 to 14 days after the injection, the thermal pain threshold was determined once daily on the right hind paw and left hind paw. Subsequently, the integral of the area which was formed from the curves for the paw withdrawal times of the inflamed paw and the noninflamed paw (AUC, area between the curves, see tables 5 and 6) was determined as a measure of the hyperalgesia. The larger this value is, the more pronounced is the hyperalgesia, and the smaller the value is in animals which are being given the substance, the greater is the success of the therapy. […] A very high dose of paracetamol was likewise administered twice daily to another group of animals which was taken through the experiment in parallel. […] The scheme for zymosan injection and dosing was identical to that in the previously described study. The only difference was that this additional study ran for 14 days.

[3] = test system: Zymosan-induced paw inflammation; assay: Zymosan-induced paw inflammation in the mouse: spontaneous running performance in a running wheel; type: in vivo, C57/B6 mice; conditions: for Statistical difference as compared with the vehicle: running wheel AUC, seven days
Method: 4th Model: • Zymosan-induced paw inflammation in the mouse; • Parameter: spontaneous running performance in a running wheel. In the cage in which it is kept, the experimental animal has access to a running wheel, the revolutions of which are recorded electronically. During the night hours, the C57/B6 mice use the running wheel voluntarily and, after a one-week phase of acclimatization, cover on average 4 100 meters/night. After zymosan has been injected, the distance run each night is reduced. This reduction in running performance is a valid parameter for a restriction in function which is due to inflammation pain. Experimental implementation: After an acclimatization phase of one week, the distance run/24 hours was measured in order to determine the base line. 25 μl of a suspension containing 50 mg of zymosan/ml were then injected into the right hind paw of the experimental animal during short-term anesthesia using isoflurane. The distance run/24 hours was then determined during the following seven days. In the analysis, the area under the curve for the values for the distance run was determined (AUC, tab. 7): the lower the AUC, the lower was the running performance during the week following injection of the zymosan. […] The substance was administered for the first time on day 1 after injection of the zymosan.

[4] = test system: Kaolin/carrageenan-induced knee joint inflammation; assay: Kaolin/carrageenan-induced knee joint inflammation in the rat: reaction of spinal neurons during pressure stimulation of the knee; type: in vivo
Excerpt: as §1
Experimental implementation: In rats which were under sodium thiopental anesthesia, the spinal canal was opened and spinal medullary neurons which processed the “pain impulses” from the knee-joint were identified. Following identification, a long-term recording, in which the activity of the nerve cell was recorded before and during the development of an acute inflammation in the knee-joint, was carried out. For this, the responses to non-noxious and noxious stimulation at the knee-joint were measured in a control period before inducing the inflammation and for several hours after inducing the inflammation.
The acute inflammation was induced by the intraarticular injection of a suspension (about 150 μl) of kaolin and carrageenan. In controlled experiments, only the vehicle was applied to the spinal medullary surface in order to represent the development of the hyperexcitability under control conditions. As a rule, this development of hyperexcitability took place within 2 to 4 hours and was expressed in a marked increase in the responses to non-noxious and noxious stimulation of the knee-joint (Tab. 3). […] The responses of the cell to non-noxious and noxious stimulation were then subsequently monitored as in the control experiments.

What does the source list for `CNc1nccc(-c2cc3cc(C(=O)N[C@@H](CN(c4ccccc4)c4ccccc4)c4n[nH]c(=O)o4)ccc3[nH]2)n1` [Compound 13, N—[(S)-2-diphenylamino-1-(5-oxo-4,5-dihydro[1,3,4]oxadiazol-2-yl)ethyl]-2-(2-methylaminopyrimidin-4-yl)-1H-indole-5-carboxamide]?
Change in the paw withdrawal time (%) ([1]; 4 h after Zymosan injection): −16.0%; Change in the paw withdrawal time (%) ([1]; 5 h after Zymosan injection): −9.7%; Change in the paw withdrawal time (%) ([1]; 6 h after Zymosan injection): 5.0%; Change in the paw withdrawal time (%) ([1]; 7 h after Zymosan injection): 3.4%; Change in the paw withdrawal time (%) ([1]; 24 h after Zymosan injection): −3.8%; Change in the paw withdrawal time (%) ([1]; Baseline −0.5 h): 0.0%; persistence of the effect on thermal hyperalgesia after the last administration ([1]; 30 mg/kg i.p. three times): ≥ 18 h; side difference in the paw withdrawal time ([1]; 30 mg/kg i.p., after the third administration of the substance): no longer possible to observe any side difference at all; thermal hyperalgesia compared with the control group ([1]; 30 mg/kg i.p., from two hours after Zymosan injection onward): less pronounced; reduction of thermal hyperalgesia compared with the NSAID diclofenac ([1]; comparative data from a study carried out previously): considerably more powerfully; activity in the test model ([1]; thermal hyperalgesia): very strong; activity in the test model ([2]; mouse, 7-day study): very strong activity; reduction of thermal hyperalgesia compared with paracetamol ([2]; mouse, 7-day study): to a greater extent; AUC (thermal hyperalgesia), dose dependence ([2]; mouse, 7-day study, orally twice daily): decreased in a dose-dependent manner; thermal hyperalgesia, dose dependence ([2]; mouse, 14-day study): reduce thermal hyperalgesia in a dose-dependent manner; effect on thermal hyperalgesia at the high dosage, compound 13 versus Celecoxib ([2]; mouse, 14-day study, high dosage): equally strong effects; Statistical difference as compared with the vehicle ([2]; 14 days, 25 mg/kg): yes; Statistical difference as compared with the vehicle ([2]; seven days, 2.8 mg/kg orally twice daily): no; Statistical difference as compared with the vehicle ([2]; seven days, 25 mg/kg orally twice daily): yes; Statistical difference as compared with the vehicle ([2]; seven days, 75 mg/kg orally twice daily): yes; distance run as compared with the vehicle group ([3]; mouse, 7 days, both the higher doses): dose-dependent increase; Statistical difference as compared with the vehicle ([3]; 2.8 mg/kg twice daily): no; Statistical difference as compared with the vehicle ([3]; 25 mg/kg twice daily): yes; Statistical difference as compared with the vehicle ([3]; 75 mg/kg twice daily): yes; Neuronal responses before and during knee-joint inflammation (imp/15 s), mean value ([4]; Non-noxious stimulation at the knee-joint, about 30 μl of 10 μM solution on spinal medulla, Baseline): 0.92 imp/15 s; Neuronal responses before and during knee-joint inflammation (imp/15 s), mean value ([4]; Noxious stimulation at the knee-joint, about 30 μl of 10 μM solution on spinal medulla, 120-180 min after K/C injection): 8.5 imp/15 s; Neuronal responses before and during knee-joint inflammation (imp/15 s), mean value ([4]; Noxious stimulation at the knee-joint, about 30 μl of 10 μM solution on spinal medulla, Baseline): 0.8 imp/15 s; development of spinal hyperexcitability compared with the controls ([4]; rat, about 30 μl of 10 μM solution on spinal medulla): almost completely suppressed; effect on the responses to noxious knee-joint stimulation compared with indomethacin ([4]; rat, comparison with published data from an earlier study): more strongly expressed
